Measurements reported in patent US9212204B2, “Treatment of rett syndrome using glycyl-L-2-methylprolyl-L-glutamic acid” (priority 2011, dated 2015).
Non-standard residues stand in square brackets, D forms with d. Residues, ends and D or L forms follow the SMILES beside them. αMeP = C[C@@]1(C(=O)O)CCCN1

Assays:
[1] = tested on: ChAT-positive neurons in the striatum of 18-month old rats; experiment: ChAT immunohistochemistry in striatum of aging rats; assay type: in vivo, rat; conditions: single s.c. dose 0.012-12 mg/kg, 3 days after treatment
Experimental: In this experiment, we tested the effects of G-2-MePE on the number of ChAT-positive neurons in brains of 18-month old rats.
Eighteen-month old male rats received one of five treatments. A control group was treated with vehicle (saline alone (n=4) and four groups were treated with a single dose of G-2-MePE. Doses of 0.012 (n=4), 0.12 (n=5), 1.2 (ln=5) and 12 mg/kg (n=3), respectively, were given sub-cutaneously. Rats were sacrificed with an overdose of pentobarbital 3 days after drug treatment. Brains were perfused with normal saline and 4% paraformaldehyde and fixed in perfusion fixative overnight. Brains were stored in 25% sucrose in 0.1M PBS (pH7.4) until the tissue sank. Frozen coronal sections of striatum were cut with a microtome and stored in 0.1% sodium azide in 0.1M PBS at 4° C. Immunoreactivity for choline acetyltransferase (ChAT) was established by staining using a free floating section method. Briefly, antibodies were diluted in 1% goat serum. The sections were incubated in 0.2% triton in 0.1M PBS/Triton™ at 4° C. overnight before Immunohistochemical staining. The sections were pre-treated with 1% H2O2 in 50% methanol for 20 min. […]
The size of the striatal region used for the count was measured using an image analyser. […]
Data were analysed using a paired t-test and presented as mean+/−SEM.

[2] = tested on: PCNA positive cells in the subventricular zone (SVZ); experiment: PCNA staining, neuroblast proliferation in the subventricular zone; assay type: in vivo, rat; conditions: for number of PCNA positive cells in the SVZ: 3 days after treatment
Experimental: To carry out these studies, tissues were fixed and embedded in paraffin and sections obtained using standard methods. Coronal sections (6 μm) containing the level of the hippocampus were cut and mounted on chrome-alum-coated slides for staining. The sections were deparaffinized in xylene, dehydrated in a series of ethanol and incubated in 0.1 M phosphate buffered saline (PBS).
Primary antibodies against glial fibrillary acidic protein (GFAP) and proliferating cell nuclear antigen (PCNA) were used to mark reactive glial cells and cells undergoing apoptosis and proliferation, respectively. For antigen unmasking (caspase-3 and PCNA staining), sections were heated in 10 mM sodium citrate buffer (pH 6.0) for 1 min at high power. All sections were pretreated with 1% […] in 50% methanol for 30 min to quench the endogenous peroxidase activity. Then either 1.5% normal horse serum or 2.5% normal sheep serum in PBS was applied for 1 h at room temperature to block nonspecific background staining. The sections were then incubated with following primary antibodies: monoclonal mouse anti-GFAP antibody (Sigma, St. Louis, Mo., U.S.A. diluted 1:500); mouse anti-PCNA antibody (DAKA, A/S, Denmark, diluted 1:100). After incubation with primary antibodies at 4° C. for 2 d (except for PCNA staining which was incubated overnight) the sections were incubated with biotinylated horse anti-mouse or goat anti-rabbit secondary antibody (1:200, Sigma) at 4° C. overnight. The ExtrAvidin™ (Sigma, 1:200), which had been prepared 1 h before use, was applied for 3 h at room temperature, and then reacted in 0.05% 3,3-diaminobenzidine (DAB) and PBS to produce a brown reaction product. Sections were dehydrated in a series of alcohols to xylene and coverslipped with mounting medium.
Immunohistochemical staining was performed on brain samples taken from both control and G-2-MePE treated groups of young (4 months old), middle-aged (9 months old) and aged rats (18 months old).
Control sections were processed in the same way except the primary antibody was omitted from the incubation solution. The number of PCNA positive cells was counted in the subventricular zone and the GFAP positive cells was scored in the cerebral cortex.
The subventricular zone (SVZ) and the dentate gyrus (DG) are two brain regions hosting adult neurogenesis. […]
Eighteen month old male rats were treated intraperitoneally with single does of G2-MePE (doses of either 0, 0.012, 0.12. 1.2, 12 mg/kg). […] The number of PCNA positive cells was counted in the SVZ and the number of cells was then averaged as cells/mm depending on the length of ventricle wall used for counting (FIG. 19A). […]

MeCP2 deficient mice = experiment: Survival of MeCP2 deficient mice after oral administration; assay type: in vivo, mouse; conditions: 20 or 80 mg/kg daily
Experimental: Therefore, we administer G-2-MePE orally to MeCP2 deficient mice as described in US 2009/0074865. Briefly, an aqueous solution, a water-in-oil emulsion (micro-emulsion, coarse emulsion or liquid crystal), or a gel composition containing a pharmaceutically effective amount of G-2-MePE (20 or 80 mg/kg per animal) is administered daily. In control MeCP2 deficient animals, we administer saline only, and wild-type animals are used to obtain baseline data similar to the design of studies described in Example 8 above.

[3] = tested on: animals with penetrating ballistic injury; conditions: pTBI; cited from earlier work

With `C[C@@]1(C(=O)N[C@@H](CCC(=O)O)C(=O)O)CCCN1C(=O)CN` [Example G-2-MePE, Glycyl-L-2-methylprolyl-L-glutamic acid] (H-Gly-[αMeP]-Glu-OH) as the molecule, how does the “number of ChAT-immunopositive neurons” value [1] read?
The value was “increased”.

And the “number of PCNA positive cells in the SVZ” value ([2]; 1.2 mg/kg i.p., 9 month old rats, p<0.005)?
Its value is “significant increase”.

What about the “dose dependence of effect on neurogenesis” value ([2]; 0.012-12 mg/kg single i.p. dose, 18 month old rats) of the same molecule?
Its value is “dose-dependent effect”.

And the “number of PCNA positive cells in the SVZ” value ([2]; 12 mg/kg single i.p. dose, 18 month old rats, vs vehicle p<0.05)?
The value was “significant increase”.

And the “PCNA and doublecortin staining” value ([2]; highest dose, vs vehicle treated rat, FIG. 19B)?
Its value is “increase”.

And the survival (MeCP2 deficient mice)?
The survival was “increased substantially”.

And the neuroinflammation [3]?
The neuroinflammation was “inhibits”.
